Patent US20250090699A1, “FAP TARGETING CYCLIC PEPTIDES AND CONJUGATES THEREOF” (Novartis AG, priority 2023, published 2025)
Where a name gives a salt, the structure may show the parent alone. Starred links: 1 amine or outer side, 2 acyl side, 3 side chain; linkers in the order of their positions; H or OH if unused. Non-standard residues stand in square brackets, D forms with d. Residues, ends and D or L forms follow the SMILES beside them. Groups on a side chain read outwards from the residue. *: point of attachment. DOTA = O=C(O)CN1CCN(CC(=O)O)CCN(CC(=O)*)CCN(CC(=O)O)CC1; NOTA = O=C(O)CN1CCN(CC(=O)O)CCN(CC(=O)*)CC1; Phe(4-CH2NH2) = NCc1ccc(C[C@H](N)C(=O)O)cc1; Piperazinyl(4-CH2COOH) = O=C(O)CN1CCN(*)CC1; NMeF = CN[C@@H](Cc1ccccc1)C(=O)O; Aoc(2) = CCCCCC[C@H](N)C(=O)O; Ahp(2) = CCCCC[C@H](N)C(=O)O; AEEA = NCCOCCOCC(=O)O; CO = O=C([*:1])[*:2]

What was measured:
mouse FAP [1] = target: T1, mouse FAP (Mus musculus, UniProt P97321); experiment: Surface plasmon resonance (SPR) for peptide affinity, mouse FAP; assay type: binding
T1 construct: biotinylated His, Avi tag, mouse FAP (26-761, FAP-M82Q5); His; Avi tag (biotinylated); purchased AcroBiosystems FAP-M82Q5
T1 sequence (P97321 26-761): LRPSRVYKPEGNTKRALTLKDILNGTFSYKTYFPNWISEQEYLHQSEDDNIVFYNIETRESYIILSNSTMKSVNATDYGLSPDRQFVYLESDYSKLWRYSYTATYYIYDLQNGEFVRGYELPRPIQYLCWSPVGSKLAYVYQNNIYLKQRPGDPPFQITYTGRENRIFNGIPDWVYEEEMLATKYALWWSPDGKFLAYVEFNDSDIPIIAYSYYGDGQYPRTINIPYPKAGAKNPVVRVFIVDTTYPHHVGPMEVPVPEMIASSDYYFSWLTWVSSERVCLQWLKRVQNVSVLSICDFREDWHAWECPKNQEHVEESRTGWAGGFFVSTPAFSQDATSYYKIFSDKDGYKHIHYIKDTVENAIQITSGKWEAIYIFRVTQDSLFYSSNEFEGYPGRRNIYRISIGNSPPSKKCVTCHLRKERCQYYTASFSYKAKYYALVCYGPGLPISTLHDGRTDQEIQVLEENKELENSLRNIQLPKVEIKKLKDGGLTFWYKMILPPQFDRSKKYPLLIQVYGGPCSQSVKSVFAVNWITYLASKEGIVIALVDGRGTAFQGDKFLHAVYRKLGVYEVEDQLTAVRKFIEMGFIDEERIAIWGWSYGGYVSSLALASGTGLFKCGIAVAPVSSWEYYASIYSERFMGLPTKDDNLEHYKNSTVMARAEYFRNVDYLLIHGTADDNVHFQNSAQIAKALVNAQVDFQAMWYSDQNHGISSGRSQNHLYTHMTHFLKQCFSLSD
Method: Peptide affinities (KD) were determined by SPR using a Biacore™ 8K device (Cytiva) towards the following proteins: biotinylated His, Avi tag, human FAP (26-760, FAP-H82Q6), biotinylated His, Avi tag, mouse FAP (26-761, FAP-M82Q5), His tag, human DPP4 (34-766, DP4-H82E3), all purchased from AcroBiosystems and His tag, mouse DPP4 (29-760, 954-SE) from R&D Systems. The FAP proteins and their homologous were diluted to a concentration of 2 μg/mL into acetate buffer pH 5.5, then immobilized onto a CM5 sensorchip (Cytiva, BR-1005-30) to reach a response around 2000 R U. The running buffer HBS-EP+pH 7.6 (20× from Teknova CAT. No: H8022) contained 10 mM HEPES pH 7.6, 150 mM NaCl, 3 mM EDTA, 0.05% Tween20 and 2% DMSO. Experiments were carried out at 25° C. using a flow rate of 30 μL/min. Compounds were tested in single cycle kinetic mode at 8 different concentrations. Curve fitting was performed using the Biacore™ 8K evaluation software. The sensorgrams were fitted by applying a 1:1 binding model to calculate kinetic rate constants and equilibrium dissociation constants (KD).
For this assay, the setup had the same conditions (flow rate, running buffer, peptide dilution) as described above for the CM5 method. The oligo CAP reagent obtained in the CAPture Kit (Ref. 28920234) was 1/5 diluted into running buffer and used with a contact time of 300 s at a flow rate of 2 μL/min. The human and mouse FAP constructs described above were used (from AcroBiosystems or produced in house). The FAP proteins were diluted to a concentration of 2 μg/mL into acetate pH 5.5, 0.05% Tween20 and used with a contact time of 600 s at a flow rate of 10 μL/min. The peptides were tested with an association time of 280 s followed by a dissociation time of 3000 s at a flow rate of 30 μL/min. The regeneration was done using the regeneration solution (8 M guanidine-HCl, 1 M NaOH) as obtained with a contact time of 270 s at a flow rate of 10 μL/min. […] The compounds marked with an asterisk were tested against human and mouse DDP4.

mouse FAP [2] = target: T1, mouse FAP; experiment: Enzymatic FAP competition assay (Z-Gly-Pro-AMC fluorescence), mouse FAP; assay type: biochemical; conditions: read-out: m. FAP, Enz., IC50
Method: (§1) Peptide potencies (IC50) to inhibit the FAP enzymatic activity were determined using a fluorescence-based assay towards the biotinylated His, Avi tag, human FAP (26-760, FAP-H82Q6) and the biotinylated His, Avi tag, mouse FAP (26-761, FAP-M82Q5). Standard assay conditions consisted of 20 μL total volume in white 384-well plates (Greiner, Ref. 784075), in 50 mM phosphate buffer pH 7.5 containing 150 mM NaCl, 0.05% Tween20 and 1% final DMSO. Tested peptides at 14 different concentrations up to 1 μM were added to 0.01 nM human or mouse FAP. The peptides were incubated for 24 hours together with the protein before adding the substrate 50 μM Z-Gly-Pro-AMC (I-1145 from Bachem). Samples were then incubated at 22-24° C. for 4 h before reading the fluorescence at excitation wavelength of 380 nm and emission wavelength of 460 nm using the Tecan Infinite® M1000 PRO. The high control (100% activity) was not containing any peptide, and an internal potent peptide was added at 10 μM concentration for the low control (100% inhibition). IC50 values were calculated by curve fitting using an in-house developed software (Novartis Helios software application) using the method described by Fomenko et al., 2006 (regression algorithms for nonlinear dose-response curve fitting). Following normalization of activity values for the wells to % inhibition (% inhibition=[(high control-sample)/(high control-low control)]x 100). IC50 fitting was carried out from the duplicated points.

human FAP = target: T2, human FAP (Homo sapiens, UniProt Q12884); experiment: Enzymatic FAP competition assay (Z-Gly-Pro-AMC fluorescence), human FAP; assay type: biochemical; conditions: read-out: h. FAP, Enz., IC50
T2 construct: the biotinylated His, Avi tag, human FAP (26-760, FAP-H82Q6); His; Avi tag (biotinylated); purchased AcroBiosystems FAP-H82Q6
T2 sequence (Q12884 26-760): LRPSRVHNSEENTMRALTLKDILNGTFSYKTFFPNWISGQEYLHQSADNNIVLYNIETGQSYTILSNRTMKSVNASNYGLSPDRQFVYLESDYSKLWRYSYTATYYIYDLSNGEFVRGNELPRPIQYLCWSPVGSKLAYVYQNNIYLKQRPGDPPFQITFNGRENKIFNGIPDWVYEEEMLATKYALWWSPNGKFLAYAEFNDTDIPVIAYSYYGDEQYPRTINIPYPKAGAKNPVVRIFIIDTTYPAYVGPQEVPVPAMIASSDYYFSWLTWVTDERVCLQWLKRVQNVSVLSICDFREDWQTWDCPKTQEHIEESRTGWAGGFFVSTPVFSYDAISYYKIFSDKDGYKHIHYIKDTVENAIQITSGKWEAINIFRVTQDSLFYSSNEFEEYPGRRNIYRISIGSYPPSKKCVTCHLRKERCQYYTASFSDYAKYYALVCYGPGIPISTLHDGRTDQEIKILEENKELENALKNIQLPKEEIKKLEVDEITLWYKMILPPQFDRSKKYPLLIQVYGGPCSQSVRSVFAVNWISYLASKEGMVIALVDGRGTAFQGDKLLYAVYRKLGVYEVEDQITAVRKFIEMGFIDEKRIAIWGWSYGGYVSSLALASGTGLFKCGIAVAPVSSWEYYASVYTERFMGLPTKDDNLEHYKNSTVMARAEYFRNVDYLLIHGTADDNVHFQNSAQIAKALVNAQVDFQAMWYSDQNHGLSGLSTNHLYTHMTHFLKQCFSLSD
Method: as §1

| Compound | Kd (mouse FAP [1]) [nM] | IC50 (mouse FAP [2]) [nM] | IC50 (human FAP) [nM] |
| --- | --- | --- | --- |
| CCCCC[C@@H]1NC(=O)[C@H](Cc2ccc(CNC(=O)COCCOCCNC(=O)CN3CCN(CC(=O)O)CCN(CC(=O)O)CCN(CC(=O)O)CC3)cc2)NC(=O)[C@H](Cc2ccccc2)N(C)C(=O)CNC(=O)CNC(=O)[C@H]2CCCN2C(=O)[C@H](CC(=O)O)NC(=O)[C@H](Cc2ccc(O)cc2)NC(=O)CNC(=O)[C@H](Cc2c[nH]c3ccccc23)NC1=O [Example B16, Gly-Gly-NMePhe-F(4amPEG2NHDOTA)-Ahp-Trp-Gly-Tyr-Asp-D-Pro, TFA salt] (cyclo([Ahp(2)]WGYD[dP]GG[NMeF][Phe(4-CH2NH2)]([AEEA-DOTA]))) | 0.01 | 0.03 | 0.009 |
| CCCCCC[C@@H]1NC(=O)[C@H](Cc2ccc(CNC(=O)COCCOCCNC(=O)CN3CCN(CC(=O)O)CCN(CC(=O)O)CC3)cc2)NC(=O)[C@H](Cc2ccccc2)N(C)C(=O)CNC(=O)CNC(=O)[C@H]2CCCN2C(=O)[C@H](CC(=O)O)NC(=O)[C@H](CCCCNC(=O)N2CCN(CC(=O)O)CC2)NC(=O)CNC(=O)[C@H](Cc2c[nH]c3ccccc23)NC1=O [Example B40, Gly-Gly-NMePhe-F(4amPEG2NHNOTA)-Aoc-Trp-Gly-K(COpipzaa)-Asp-D-Pro] (cyclo(GG[NMeF][Phe(4-CH2NH2)]([AEEA-NOTA])[Aoc(2)]WGK([CO-Piperazinyl(4-CH2COOH)])D[dP])) | < 0.024 | 0.012 | 0.006 |
| Glu-Gly-NMe3PyA-F(4amPEG2NHDOTA-Lu)-hS(Pr)-W7N-Gly-K(COpipzaa)-Asp-D-Pro [Example C7] | < 0.068 | 0.034 | 0.014 |
| CCCCC[C@@H]1NC(=O)[C@H](Cc2ccc(CNC(=O)CN3CCN(CC(=O)O)CCN(CC(=O)O)CCN(CC(=O)O)CC3)cc2)NC(=O)[C@H](Cc2ccccc2)N(C)C(=O)CNC(=O)CNC(=O)[C@H]2CCCN2C(=O)[C@H](CC(=O)O)NC(=O)[C@H](Cc2ccc(O)cc2)NC(=O)CNC(=O)[C@H](Cc2c[nH]c3ccccc23)NC1=O [Example B17, Gly-Gly-NMePhe-F(4amDOTA)-Ahp-Trp-Gly-Tyr-Asp-D-Pro, TFA salt] (cyclo([Ahp(2)]WGYD[dP]GG[NMeF][Phe(4-CH2NH2)](DOTA))) | 0.133 | 0.158 | 0.033 |
